Where two headings read alike, the source gives them in different places.
Experiments:
human cyclooxygenase-2 = biological target: T1, human cyclooxygenase-2 (Homo sapiens, UniProt P35354); assay: Inhibitory action on cyclooxygenase-2 (conversion of 14C arachidonic acid into PGH2); conditions: for COX-1/COX-2: ratio of IC50 COX-1 to IC50 COX-2
T1 sequence (P35354 18-604): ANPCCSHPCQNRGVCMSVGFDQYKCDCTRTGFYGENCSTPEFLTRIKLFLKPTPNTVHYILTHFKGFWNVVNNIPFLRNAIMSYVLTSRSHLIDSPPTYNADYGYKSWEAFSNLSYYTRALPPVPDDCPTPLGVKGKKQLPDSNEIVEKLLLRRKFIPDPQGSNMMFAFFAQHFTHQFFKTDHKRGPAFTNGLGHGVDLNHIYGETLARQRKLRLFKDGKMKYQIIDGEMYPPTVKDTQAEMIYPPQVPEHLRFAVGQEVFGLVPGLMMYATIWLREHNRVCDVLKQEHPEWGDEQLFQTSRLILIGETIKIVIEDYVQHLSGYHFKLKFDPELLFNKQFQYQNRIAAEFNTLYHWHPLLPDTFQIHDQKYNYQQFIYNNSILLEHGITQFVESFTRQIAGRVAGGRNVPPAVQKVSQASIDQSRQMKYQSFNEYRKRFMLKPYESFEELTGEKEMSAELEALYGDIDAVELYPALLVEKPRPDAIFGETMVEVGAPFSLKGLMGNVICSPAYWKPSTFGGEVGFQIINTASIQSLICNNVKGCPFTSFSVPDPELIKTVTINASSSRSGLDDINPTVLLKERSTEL
Method: The enzymatic activity was determined from the percent conversion of ^14C arachidonic acid into prostaglandin H2 (PGH2) and the decomposed product thereof. That is, a test sample (20 μl), an enzyme solution (20 μl) and distilled water (10 μl) were added to 100 mM Tris-HCl buffer (pH 8, 140 μl) containing hematin (2 μM) and tryptophan (5 mM), and the mixture was thoroughly stirred, which was followed by preincubation at 24° C. for 5 minutes. Then, a ^14C arachidonic acid solution (10 μl) was added and the mixture was reacted at 24° C., whereafter a solution (40 μl) of ethyl ether/methanol/1M citric acid (30/4/1) ice-cooled to −20° C. was added to stop the reaction. The reaction mixture was centrifuged for 5 minutes at 3,000 rpm to give an ether layer which was placed on a thin plate, and developed with ethyl ether/methanol/acetic acid (90/2/0.1) to determine percent conversion (A) from arachidonic acid to PGH2 and the decomposed product thereof.
An enzyme prepared from human platelets was used as an enzyme solution of cyclooxygenase-1, and an enzyme expressed by a yeast, into which cDNA of human cyclooxygenase-2 had been introduced using a kit of Invitrogen Corp., was used as an enzyme solution of cyclooxygenase-2.

[1] = biological target: cyclooxygenase-1 prepared from human platelets (Homo sapiens, UniProt P23219); assay: Inhibitory action on cyclooxygenase-1 (conversion of 14C arachidonic acid into PGH2); type: biochemical; conditions: enzyme prepared from human platelets; preincubation 24° C. 5 minutes; read-out: IC50 (μM) COX-1
Excerpt: (Inhibitory Action on Cyclooxygenase)
Inhibition (%)=(1−A/B)×100

[2] = test system: carrageenin-induced podedema; assay: Effects on carrageenin-induced podedema; type: in vivo, male Donryu rats; conditions: p.o. one hour before carrageenin; limb volume 3 hours after carrageenin; dose inhibiting by 30% relative to control group
Method: (Effects on Carrageenin-induced Podedema)
Carrageenin (1%, 0.05 ml) dissolved in physiological saline was subcutaneously injected to the left hindlimb of male Donryu rats to induce podedema. The degree of podedema was evaluated by measuring the volume of the limb 3 hours after carrageenin administration. A test compound (1, 3, 10 or 30 mg/kg) was orally administered one hour before carrageenin administration, and suppression thereby was studied. Inhibitory activity was expressed by the dose (ED30) of the test compound necessary for inhibiting by 30% relative to the control group.

cyclooxygenase-1 prepared from human platelets, sequence (P23219 24-599): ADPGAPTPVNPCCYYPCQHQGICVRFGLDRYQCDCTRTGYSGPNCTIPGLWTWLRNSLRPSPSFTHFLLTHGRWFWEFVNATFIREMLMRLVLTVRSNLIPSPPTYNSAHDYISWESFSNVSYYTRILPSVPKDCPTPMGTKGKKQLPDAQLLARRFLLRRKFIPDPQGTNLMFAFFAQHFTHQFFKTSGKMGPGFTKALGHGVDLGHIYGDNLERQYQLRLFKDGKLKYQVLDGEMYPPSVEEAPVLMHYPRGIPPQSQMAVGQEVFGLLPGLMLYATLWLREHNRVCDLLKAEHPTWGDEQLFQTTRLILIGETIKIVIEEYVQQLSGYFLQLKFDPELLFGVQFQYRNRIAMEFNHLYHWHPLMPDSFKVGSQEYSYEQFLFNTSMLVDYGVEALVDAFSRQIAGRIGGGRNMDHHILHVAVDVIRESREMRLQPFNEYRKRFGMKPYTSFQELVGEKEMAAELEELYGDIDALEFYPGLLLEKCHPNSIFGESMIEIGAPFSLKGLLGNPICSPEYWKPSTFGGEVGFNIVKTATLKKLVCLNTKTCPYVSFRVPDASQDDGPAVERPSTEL

Compound: Cc1nc(C2CCCCC2)c(-c2ccc(S(N)(=O)=O)cc2)o1 [Control 1, reference compound]
- COX-1/COX-2 (human cyclooxygenase-2): 643

Compound: Cc1nc(-c2ccc(F)cc2)c(-c2ccc(S(N)(=O)=O)cc2)o1 [Control 2, reference compound]
- IC50 [1]: 5 µM
- IC50 (human cyclooxygenase-2; read-out: IC50 (μM) COX-2, enzyme expressed by yeast with cDNA of human cyclooxygenase-2, preincubation 24° C. 5 minutes): 0.02 µM

Compound: Cc1nc(C2CCCCC2)c(-c2ccc(S(N)(=O)=O)c(F)c2)o1 [Example 2, 5-(4-aminosulfonyl-3-fluorophenyl)-4-cyclohexyl-2-methyloxazole]
- IC50 [1]: > 100 µM
- carrageenin-induced podedema in rats, ED30 (mg/kg p.o.) [2]: 5.5 mg/kg
- COX-1/COX-2 (human cyclooxygenase-2): >1,428

Compound: Cc1nc(C2CCCCC2)c(-c2ccc(S(C)(=O)=O)c(F)c2)o1 [Example 3, 4-cyclohexyl-5-(3-fluoro-4-methylsulfonylphenyl)-2-methyloxazole]
- COX-1/COX-2 (human cyclooxygenase-2): >333

Compound: Cc1nc(C2CCCCC2)c(-c2ccc(S(N)(=O)=O)c(Cl)c2)o1 [Example 4]
- IC50 (human cyclooxygenase-2): > 10 µM

Compound: Cc1nc(C2CCCCC2)c(-c2ccc(S(N)(=O)=O)c(C)c2)o1 [Example 5]
- IC50 (human cyclooxygenase-2): > 10 µM

Compound: Cc1nc(C2CCCCC2)c(-c2cc(F)c(S(N)(=O)=O)c(F)c2)o1 [Example 6]
- COX-1/COX-2 (human cyclooxygenase-2): >625

Compound: Cc1nc(-c2ccc(F)cc2)c(-c2ccc(S(N)(=O)=O)c(F)c2)o1 [Example 7, 5-(4-aminosulfonyl-3-fluorophenyl)-4-(4-fluorophenyl)-2-methyloxazole]
- COX-1/COX-2 (human cyclooxygenase-2): 1,233

Compound: COc1ccc2c(c1)c(CC(=O)O)c(C)n2C(=O)c1ccc(Cl)cc1 [Indomethacin, reference compound]
- carrageenin-induced podedema in rats, ED30 (mg/kg p.o.) [2]: 2.9 mg/kg

From US20020143040A1, “Heterocyclic aromatic oxazole compounds and use thereof” (priority 1994, published 2002)
